Several values for one entry are separate records, joined by “and”; a condition that tells them apart may be missing. Equal values may be shown once. Read-outs that look alike come from different tables or passages of the source.
Columns and labels:
[1] = design: method as in Supporting Information; settings: multiple doses up to 300 mg bid ref Supporting Information; cited from earlier work
[2] = system: clinical RSV isolates (31 A-subtypes and 29 B-subtypes); design: method as in PMID 31194544; settings: all clinical RSV isolates (31 A-subtypes and 29 B-subtypes) ref 9; cited from earlier work
[3] = design: method as in Study AK0529-1001; settings: single doses of 100 mg and above ref Study AK0529-1001; cited from earlier work
[4] = system: recombinant RSV T400I variant; assay: Resistance test with recombinant RSV T400I variant
[5] = system: laboratory strains of RSV-A and RSV-B; assay: Cytopathic effect (CPE) assay using Hep-2 cells; format: cell-based, human RSV; settings: human respiratory syncytial virus
Procedure: The EC90 value was determined in the presence of the known plasma protein binding in the CPE assay. […] To achieve a target efficacious concentration in humans, it was expected that a minimum target of 5 × EC90 value, or approximately 40 ng/mL should be attained. To maintain the effectiveness, this target Ctrough level was required to be achieved across the dosing interval.

[6] = Phase 2 study: population pharmacokinetics of plasma concentrations; format: in vivo, human (infants); settings: for Tmax / AUC(0-t) / Cmax / AUC(0-inf) / half-life: human, plasma; for Cmax: read-out: Cmax mean (CV %); for AUC(0-inf): read-out: AUC0–∞ mean (CV %); for half-life: read-out: t½ mean (CV %) (converted)
Procedure: Individual plasma concentrations of the active drug were measured, and PK were determined using nonlinear mixed‐effect models. In all cases, when new data were available, the updated model was used for evaluation under the assumption of an allometric coefficient of 0.75 and incorporation of CYP maturation. Using a Population PK (Pop‐PK) analysis approach, AUC0–∞, clearance (CL/F), volume of distribution (Vc/F), and other PK parameters were estimated for AK0529. Maximum plasma concentration (Cmax) was computed from the predicted profiles.
Clinical safety and tolerability were assessed on the safety population, comprising all subjects who received ≥1 dose of study drug. Clinical variables were evaluated in the full analysis population, which included all subjects who received a dose of study drug and for whom ≥1 post‐treatment assessment was available. Pharmacokinetic analysis was performed on those subjects in the safety population for whom both pre‐ and post‐dose samples were available.

[7] = Part 1, single oral dose 0.5 mg/kg
[8] = Part 1, single oral dose 1.0 mg/kg
[9] = Part 1, single oral dose 2.0 mg/kg
[10] = Part 1, single oral dose 4.0 mg/kg

Cc1ccc2nc(N3CCS(=O)(=O)c4ccccc4C3)nc(NCC3(N)COC3)c2c1 [AK0529, ziresovir]
tolerability [1]: good tolerability | antiviral activity EC90 [2]: nanomolar concentrations | mean plasma concentration levels at 12 hours post-dose [3]: > 50 ng/mL | susceptibility of recombinant RSV T400I variant [4]: resistance | minimum target trough concentration (5 × EC90) ([5]; HEp-2, target Ctrough in humans, read-out: 5 × EC90 value (minimum target efficacious concentration)): 0.04 µg/mL | EC90 ([5]; Hep-2 cells, CPE assay, read-out: EC90 of the RSV-induced reduction of cell viability (average)): 5 nM and 0.0022 µg/mL | elimination half-life in subjects aged <6 months ([6]; Part 1, compared with older subjects): slightly longer | time to reach Cmax ([6]; Part 1, single doses except 4 mg/kg): around 4 h | change in AUC with dose ([6]; Part 1, single doses up to 4 mg/kg, no apparent plateau): dose‐dependent increase | targeted drug exposure ([6]; Part 2, 2 mg/kg bid): reached | dose proportionality of mean Cmax and AUCτ ([6]; Part 2, across the dose range tested): approximate dose proportionality | increase in AUCτ from Days 1 to 5 (accumulation) ([6]; Part 2, bid dosing): approximately 1.5 fold | median trough ([6]; Part 2, bid dosing): 12 h | Tmax ([6]; oral, Part 2, Days 1 and 5, read-out: median tmax): 2.5 to 3.8 h | AUC(0-t) ([6]; oral, Part 1, single doses up to 4 mg/kg, read-out: AUC0–24): ≤ 7780 ng·h/mL | Tmax ([6]; po, 0.5 mg/kg, Part 1, single oral dose 0.5 mg/kg, read-out: tmax median (range)): 4.5 h | Tmax ([6]; po, 1 mg/kg, Part 1, single oral dose 1.0 mg/kg, read-out: tmax median (range)): 4.3 h | Tmax ([6]; po, 2 mg/kg, Part 1, single oral dose 2.0 mg/kg, read-out: tmax median (range)): 3.3 h | Tmax ([6]; po, 4 mg/kg, Part 1, single oral dose 4.0 mg/kg, read-out: tmax median (range)): ~2 h | Cmax ([6]; Part 1, single oral dose 0.5 mg/kg, N 4, all younger than 6 months): 158 ng/mL | AUC(0-t) ([6]; Part 1, single oral dose 0.5 mg/kg, read-out: AUC0–24 mean (CV %)): 1770 ng·h/mL | AUC(0-inf) [6, 7]: 2060 ng·h/mL | half-life [6, 7]: 7.7 h | Cmax ([6]; Part 1, single oral dose 1.0 mg/kg, N 6): 302 ng/mL | AUC(0-t) ([6]; Part 1, single oral dose 1.0 mg/kg, read-out: AUC0–24 mean (CV %)): 2890 ng·h/mL | AUC(0-inf) [6, 8]: 3150 ng·h/mL | half-life [6, 8]: 5.7 h | Cmax ([6]; Part 1, single oral dose 2.0 mg/kg, N 4): 375 ng/mL | AUC(0-t) ([6]; Part 1, single oral dose 2.0 mg/kg, read-out: AUC0–24 mean (CV %)): 3790 ng·h/mL | AUC(0-inf) [6, 9]: 4200 ng·h/mL | half-life [6, 9]: 6.2 h | Cmax ([6]; Part 1, single oral dose 4.0 mg/kg, N 3 incl. one subject of Study AK0529-1002): 888 ng/mL | AUC(0-t) ([6]; Part 1, single oral dose 4.0 mg/kg, read-out: AUC0–24 mean (CV %)): 7780 ng·h/mL | AUC(0-inf) [6, 10]: 8280 ng·h/mL | half-life [6, 10]: 6 h
